Measured values: patent publication US20090054521A1, “ZWITTERIONIC COMPOUNDS AND USE THEREOF” (Evonik Goldschmidt GmbH, priority 2007, published 2009)

Columns and labels:
[1] = system: skin models (reconstituted human epidermis, SkinEthic); assay: LDH release following damage to the cells with SDS, O/W cream; settings: SDS damage for 40 min, no test formulation; total LDH after 24 and 48 h
Procedure: The LDH concentration was determined using a commercially available test kit (LDH test kit, Roche Diagnostics, Mannheim, Germany).
Sodium dodecyl sulphate (SDS) is known to attack the cell membrane and lead to increased LDH release. Using the experiment described below, the aim was to investigate to what extent Compound 2.1 can protect the cells following damage with SDS.
The skin models were damaged with SDS for 40 min. The test formulation, an O/W cream with 1 or 4% of Compound 2.1, was then applied. The LDH release was measured 24 and 48 h after application of the test formulation.

[2] = system: skin models (reconstituted human epidermis, SkinEthic); assay: Anti-inflammatory effect (IL-1α) of an O/W cream after SDS damage; assay type: cell-based; settings: no test formulation, summed IL-1α after 24 and 48 h
Procedure: IL1-α is a messenger which plays a central role in inflammatory reactions in the body. Sodium lauryl sulphate (SDS) is a skin-irritative surfactant which can cause an irritative contact dermatitis in people, is used as model irritative in subject studies and, inter alia, induces the release of IL-1α. The IL-1α concentration was determined using a commercially available test kit (human IL-1α immunoassay, R&D Systems GmbH, Wiesbaden, Germany).
The aim was to investigate whether the anti-inflammatory effect of the compounds according to the invention is also present upon application from a cosmetic formulation. For this purpose, skin models were damaged with SDS. The test formulation was then applied. 24 and 48 h after the application, the Il-1α concentration was determined.

Structure (SMILES): CCCCCCCCCCCCOS(=O)(=O)[O-].[Na+] [SDS, Sodium dodecyl sulphate]
- LDH release as a result of the damage [1]: increased greatly
- formation of the cytokine IL-1α as a result of the damage [2]: increased greatly
